In the NIST ThermoML archive (doi:10.1016/j.jct.2017.11.011):

Assays:
[1] = relative permittivity at various frequencies (dimensionless); settings: 100 kPa, Liquid, Frequency=1 MHz, Parallel plate capacitor
[2] = 101.33 kPa, Liquid, Vibrating tube method
[3] = relative permittivity at various frequencies (dimensionless); xn = mol fraction of the nth substance listed; settings: 100 kPa, Liquid, Frequency=1 MHz, Parallel plate capacitor

Nc1ccccc1 [aniline]
Settings	mass density, 293.15 K [kg/m3]	mass density, 298.1 K [kg/m3]	mass density, 303.15 K [kg/m3]	relative permittivity, 293.15 K	relative permittivity, 298.15 K	relative permittivity, 303.15 K
[1]	–	–	–	7.117	6.984	6.856
[2]	1021.79	1017.52	1013.19	–	–	–

Nc1ccccc1 [aniline] + CN(C)C=O
relative permittivity, [3]
Settings	293.15 K	298.15 K	303.15 K
x2 = 0	7.117	6.984	6.856
x2 = 0.0533	8.91	8.729	8.557
x2 = 0.1046	10.653	10.426	10.2
x2 = 0.1562	12.414	12.144	11.876
x2 = 0.2033	14.004	13.689	13.383
x2 = 0.3015	17.269	16.874	16.485
x2 = 0.4071	20.625	20.146	19.678
x2 = 0.5013	23.428	22.895	22.371
x2 = 0.5999	26.184	25.601	25.026
x2 = 0.6989	28.955	28.31	27.687
x2 = 0.7931	31.604	30.92	30.246
x2 = 0.8431	33.12	32.402	31.69
x2 = 0.8982	34.833	34.071	33.315
x2 = 0.9459	36.439	35.62	34.821

CN(C)C=O [dimethylformamide]
[1]
Settings	relative permittivity
293.15 K	38.334
298.15 K	37.44
303.15 K	36.58

CN(C)C=O [dimethylformamide] + Nc1ccccc1
[3], x1 = 1
Settings	relative permittivity
293.15 K	38.334
298.15 K	37.44
303.15 K	36.58
